Common to all, as to test: NCI tumour cell line growth inhibition, 48 h
The subject of assay [1] is 786-0.
Assay [2] relates to COLO 205.
Assay [3] concerns HCC 2998.
Assay [4] relates to HCT-116.
Assay [5] relates to Hs-578T.
Assay [6] has as its system IGROV-1.
The subject of assay [7] is K562.
Assay [8] has as its system KM12.
Assay [9] deals with MDA-N.
Assay [10] has as its system MOLT-4.
Assay [11] has as its system NCI-H460.
Assay [12] has as its system OVCAR-4.
Assay [13] has as its system OVCAR-5.
Assay [14] has as its system OVCAR-8.
Assay [15] deals with RPMI-8226.
Assay [16] concerns SF-268.
The subject of assay [17] is SN12C.
Assay [18] relates to T47D.
For assay [19], the system named is UACC-257.
Assay [20] deals with UACC-62.

SMILES strings stand for the structures.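 All cell lines were grown in 96-well plates and treated with compound for 48 hours. At the GI50, growth is halved.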 Calls of active or inactive are those of the source. Rule as the data show it: active = GI50 up to about 1.1 µM and inactive = higher. Bounds are passed on as bounds.

Regarding `CCOc1ccc(NC2=CC(=O)C(=O)c3ccccc32)cc1`, the GI50 in assay [1] was 3.78 µM (inactive); in assay [2] it was 3.64 µM (inactive); in [3], 13.1 µM (inactive); in assay [4], 3.35 µM (inactive); in [5], 2.37 µM (inactive); in [6], 4.29 µM (inactive). Moreover, the GI50 is 5.07 µM (inactive) in assay [7]; 3.77 µM (inactive) in assay [8]; 2.05 µM (inactive) in [9]; 8.83 µM (inactive) in [10]; 2.47 µM (inactive) in assay [11]; 3.48 µM (inactive) in assay [12]. Moreover, the GI50 in assay [13] was 3.77 µM (inactive); in assay [14] it was 4.33 µM (inactive); in assay [15], 4.47 µM (inactive); in assay [16] it was 6.25 µM (inactive); in assay [17], 1.82 µM (inactive); in [18] it was 8.79 µM (inactive). The GI50 in [19] is 1.63 µM (inactive); in assay [20], 1.72 µM (inactive).

Regarding `CCCCCC(/C=N/Nc1ccccc1)C(O)(C(F)(F)F)C(F)(F)F` (stereo unspecified), the GI50 in assay [1], in assay [2], in assay [3], in assay [4], in assay [5] and in [6] was > 100 µM (inactive) in each case. The GI50 is > 100 µM (inactive) in assay [7]; > 100 µM (inactive) in [9]; 61.8 µM (inactive) in assay [10]; > 100 µM (inactive) in assay [11]; > 100 µM (inactive) in assay [12]; > 100 µM (inactive) in [13]. Also, the GI50 in [14], in assay [15], in assay [16], in [17], in [18] and in assay [19] was > 100 µM (inactive) throughout. Further, in assay [20], the GI50 was > 100 µM (inactive).

`COc1ccc2c(c1)C(N)=C(c1ccccc1)C2=O`: the GI50 in [1] is 80.4 µM (inactive); in [2], > 100 µM (inactive); in assay [3], 81.8 µM (inactive); in [4], 58.3 µM (inactive); in assay [5], 11.4 µM (inactive); in assay [6], 63.5 µM (inactive). For the same compound, the GI50 in assay [8] is 36.6 µM (inactive); in [9], > 100 µM (inactive); in assay [10] it was 58.5 µM (inactive); in [11] it was > 100 µM (inactive); in [12], > 100 µM (inactive); in assay [13], > 100 µM (inactive). Besides, the GI50 was 34.4 µM (inactive) in assay [14]; 96.4 µM (inactive) in assay [15]; 27 µM (inactive) in assay [16]; 99.3 µM (inactive) in assay [17]; 32.5 µM (inactive) in assay [18]; > 100 µM (inactive) in [19]. For the same compound, in assay [20], the GI50 was > 100 µM (inactive).

Consider `COC(=O)c1c(O)ccc2c1c1c(n2Cc2cc(OC)cc(OC)c2)C(=O)c2ccccc2C1=O`, for which the GI50 in assay [1] was 7.74 µM (inactive); in [2], 1.86 µM (inactive); in assay [3] it was 2.72 µM (inactive); in [4], 4.74 µM (inactive); in assay [5] it was 7.55 µM (inactive); in [6] it was 5.06 µM (inactive). Further, the GI50 in assay [7] was 5.28 µM (inactive); in assay [8] it was 3.23 µM (inactive); in assay [9] it was 3.85 µM (inactive); in assay [10], 4.42 µM (inactive); in [11], 3.75 µM (inactive); in assay [12], 9.93 µM (inactive). The GI50 in assay [13] is 21 µM (inactive); in assay [14], 3.72 µM (inactive); in assay [15] it was 2.99 µM (inactive); in assay [16], 8.32 µM (inactive); in [17], 6.03 µM (inactive); in [18] it was 10.9 µM (inactive). The GI50 in assay [19] was 23.9 µM (inactive).

Consider `COc1ccc(/C=C2\C[C@H]3[C@@H]4CC=C5C[C@@H](OC(C)=O)CC[C@]5(C)[C@H]4CC[C@]3(C)C2=O)cc1OC`, for which the GI50 is 38.7 µM (inactive) in [1]; 24.3 µM (inactive) in assay [2]; 58.3 µM (inactive) in assay [3]; 38.8 µM (inactive) in [4]; 58.6 µM (inactive) in assay [5]; > 100 µM (inactive) in [6]. In addition, the GI50 in assay [7] was 7.96 µM (inactive); in assay [8] it was 0.971 µM (active); in assay [9], 39.9 µM (inactive); in assay [10], 5.9 µM (inactive); in assay [11] it was 33.9 µM (inactive); in assay [12], 63.4 µM (inactive). The GI50 in [13] is 41 µM (inactive); in assay [14], 40.6 µM (inactive); in assay [15], 11.3 µM (inactive); in assay [16], 86.7 µM (inactive); in [17], 42.3 µM (inactive); in assay [18], 35.7 µM (inactive). Moreover, the GI50 in assay [19] is 19.8 µM (inactive); in [20], > 100 µM (inactive).

As for `C=CCOc1ccc(C2c3c(n[nH]c3O)CC(O)(OCC)C2C(=O)OCC)cc1OC` (stereo unspecified), the GI50 in assay [1], in [2], in assay [3], in assay [4], in [5] and in [6] was > 100 µM (inactive) each time. Also, the GI50 in assay [8], in assay [9], in assay [10], in assay [11], in assay [12] and in [13] was > 100 µM (inactive) in each case. The GI50 in [14], in [15], in assay [16], in [17], in [18] and in [19] was > 100 µM (inactive) throughout. Besides, the GI50 in assay [20] was 0.1 µM (active).

`Cc1cnc2nc(-c3ccc(F)cc3)cc(O)c2c1`: the GI50 in assay [1] was 32.5 µM (inactive); in [2], 7.64 µM (inactive); in assay [3], 43.5 µM (inactive); in assay [4] it was 18.7 µM (inactive); in [5], 24.1 µM (inactive); in assay [6], 29.2 µM (inactive). For the same compound, the GI50 in assay [7] is 4.52 µM (inactive); in assay [8], 5.66 µM (inactive); in [9], 2.72 µM (inactive); in assay [10], 34.1 µM (inactive); in assay [11], 19.1 µM (inactive); in assay [12] it was 48.6 µM (inactive). Moreover, the GI50 is 51.4 µM (inactive) in assay [13]; 66.4 µM (inactive) in assay [14]; 21.1 µM (inactive) in assay [15]; 67.9 µM (inactive) in [16]; 67.6 µM (inactive) in assay [17]; 39.2 µM (inactive) in assay [18]. The GI50 in assay [19] was > 75.2 µM (inactive); in assay [20] it was 21.4 µM (inactive).

The record behind these values is ChEMBL document CHEMBL1201862, “PubChem BioAssay data set” (2004).
